Measured values as given in patent US20250009742A1 (priority 2021, published 2025).

How the values were obtained:
[1] = Cell viability assay (EZ-Cytox), cytotoxicity; format: cell-based; settings: human, HepAD38 cells; for viability at 65 h, 100 µM: read-out: Cytotoxicity % Livability (@100 μM)
Experimental: HepAD38 cells were cultured for 2 days in Dulbecco's Modified Eagle's medium (Welgene, LM001-05) supplemented with 10% FBS without tetracycline. […] After 65 hours of treatment, viability was measured using EZ-Cytox cell viability assay kit (Daeil Lab Service) according to the manufacturer's instructions. The absorbance was measured at 450 nm using a spectrophotometer (Spark, Tecan).

[2] = test system: intracellular HBV DNA; assay: Real-time PCR for intracellular HBV DNA in HepAD38 cells; format: cell-based; settings: Hepatitis B virus, HePAD38, 65 h, 65 hours treatment
Experimental: HepAD38 cells were cultured in DMEM medium (Welgene) supplemented with 200 unit/mL penicillin, 200 μg/mL streptomycin, and 10% FBS. During maintenance and passage, the cells were cultured together with 0.4 μg/mL tetracycline. Two days before the treatment with compounds for inducing HBV replication was started, the medium was replaced with a tetracycline-free complete growth medium. […]
HepAD38 cells were treated with a compound for 65 hours and then recovered, and intracellular HBV DNA was extracted therefrom according to the protocol in the DNeasy Blood & Tissue Kit (Qiagen). The primers and probes used to quantify HBV DNA were 5′-[…]-3′, 5′-[…]-3′, and 5′-/56-FAM/TGT CCT GGT/ZEN/TAT CGC TGG ATG TGT CT/3IABkFQ/-3′. The HBV DNA was amplified by real-time PCR assay using LightCycler 480 (Roche) (J. Virol., 2018, 92(16):e00339-18). All of the processes were confirmed in duplicate.

| Structure (SMILES) | CC50 at 65 h [1] [nM] | viability at 65 h, 100 µM [1] [%] | IC50 [2] [nM] |
| --- | --- | --- | --- |
| COc1ccc(N(Cc2cc(C(F)(F)F)[nH]n2)C(=O)Nc2ccc(F)c(F)c2)cn1 [Example 168, 3-(3,4-difluorophenyl)-1-(6-methoxypyridin-3-yl)-1-((5-(trifluoromethyl)-1H-pyrazol-3-yl)methyl)urea] | > 100000 | 59.8 | 73 |
| COc1ncc(N(Cc2cc(C(F)(F)F)[nH]n2)C(=O)NC23CC(Cl)(C2)C3)cn1 [Example 6, 3-(3-chlorobicyclo[1.1.1]pentan-1-yl)-1-(2-methoxypyrimidin-5-yl)-1-((5-(trifluoromethyl)-1H-pyrazol-3-yl)methyl)urea] | > 100000 | 100 | > 1100 |
| COc1ccc(N(Cc2n[nH]c3c2COC3)C(=O)Nc2ccc(F)c(Cl)c2)cn1 [Example 69, 3-(3-chloro-4-fluorophenyl)-1-((4,6-dihydro-1H-furo[3,4-c]pyrazol-3-yl)methyl)-1-(6-methoxypyridin-3-yl)urea] | > 100000 | 94.5 | 21 |
| COc1ccc(N(Cc2cc(C(F)F)[nH]n2)C(=O)Nc2ccc(F)c(C(F)F)c2)nn1 [Example 195, 1-((5-(difluoromethyl)-1H-pyrazol-3-yl)methyl)-3-(3-(difluoromethyl)-4-fluorophenyl)-1-(6-methoxypyridazin-3-yl)urea] | > 100000 | 100 | > 1100 |
| CC(C)(O)c1ccc(N(Cc2n[nH]c3c2CCCO3)C(=O)Nc2ccc(F)c(Cl)c2)cn1 [Example 110, 3-(3-chloro-4-fluorophenyl)-1-(6-(2-hydroxypropan-2-yl)pyridin-3-yl)-1-((1,4,5,6-tetrahydropyrano[2,3-c]pyrazol-3-yl)methyl)urea] | > 100000 | – | > 1100 |
| COc1ncc(N(Cc2n[nH]c(C(F)(F)F)c2CC(C)O)C(=O)Nc2ccc(F)c(Cl)c2)cn1 (centres unmarked) [Example 95, 3-(3-chloro-4-fluorophenyl)-1-((4-(2-hydroxypropyl)-5-(trifluoromethyl)-1H-pyrazol-3-yl)methyl)-1-(2-methoxypyrimidin-5-yl)urea] | 62200 | 29.9 | 830 |
| CC(C)(O)c1cc(N(Cc2n[nH]c3c2CCCO3)C(=O)Nc2ccc(F)c(Cl)c2)ccn1 [Example 113, 3-(3-chloro-4-fluorophenyl)-1-(2-(2-hydroxypropan-2-yl)pyridin-4-yl)-1-((1,4,5,6-tetrahydropyrano[2,3-c]pyrazol-3-yl)methyl)urea] | > 100000 | 102 | > 1100 |
| CCOCCc1c(CN(C(=O)Nc2ccc(F)cc2)c2ccc(OC)nc2)n[nH]c1C(F)(F)F [Example 182, 1-((4-(2-ethoxyethyl)-5-(trifluoromethyl)-1H-pyrazol-3-yl)methyl)-3-(4-fluorophenyl)-1-(6-methoxypyridin-3-yl)urea] | > 100000 | 104 | > 1100 |
| N#Cc1ccc(N(Cc2cc(C(F)(F)F)[nH]n2)C(=O)Nc2ccc(F)c(Cl)c2)cn1 [Example 130, 3-(3-chloro-4-fluorophenyl)-1-(6-cyanopyridin-3-yl)-1-((5-(trifluoromethyl)-1H-pyrazol-3-yl)methyl)urea] | > 100000 | 68 | 65 |
| CC(=O)c1ccc(N(Cc2n[nH]c3c2CCOC3)C(=O)Nc2ccc(F)c(Cl)c2)cn1 [Example 21, 1-(6-acetylpyridin-3-yl)-3-(3-chloro-4-fluorophenyl)-1-((1,4,5,7-tetrahydropyrano[3,4-c]pyrazol-3-yl)methyl)urea] | > 100000 | – | > 1100 |
| CS(=O)(=O)Nc1ccc(N(Cc2n[nH]c3c2CCOC3)C(=O)Nc2ccc(F)c(Cl)c2)cn1 [Example 17, N-(5-(3-(3-chloro-4-fluorophenyl)-1-((1,4,5,7-tetrahydropyrano[3,4-c]pyrazol-3-yl)methyl)ureido)pyridin-2-yl)methanesulfonamide] | > 100000 | – | > 1100 |
| COc1ncc(N(Cc2cc(C(F)(F)F)[nH]n2)C(=O)Nc2ccc(C#N)c(Cl)c2)cn1 [Example 7, 3-(3-chloro-4-cyanophenyl)-1-(2-methoxypyrimidin-5-yl)-1-((5-(trifluoromethyl)-1H-pyrazol-3-yl)methyl)urea] | > 100000 | 59.3 | 19 |
| COc1ncc(N(Cc2n[nH]c(C(F)(F)F)c2C(C)(C)O)C(=O)Nc2ccc(F)c(C(F)F)c2)cn1 [Example 207, 3-(3-(difluoromethyl)-4-fluorophenyl)-1-((4-(2-hydroxypropan-2-yl)-5-(trifluoromethyl)-1H-pyrazol-3-yl)methyl)-1-(2-methoxypyrimidin-5-yl)urea] | > 100000 | 87.7 | 740 |
| COc1cc(N(Cc2cc(C(F)(F)F)[nH]n2)C(=O)Nc2ccc(F)c(C#N)c2)cnn1 [Example 163, 3-(3-cyano-4-fluorophenyl)-1-(6-methoxypyridazin-4-yl)-1-((5-(trifluoromethyl)-1H-pyrazol-3-yl)methyl)urea] | > 100000 | 99 | 7 |
| CC(C)(O)c1cc(N(Cc2n[nH]c3c2CCOC3)C(=O)Nc2ccc(F)c(Cl)c2)on1 [Example 115, 3-(3-chloro-4-fluorophenyl)-1-(3-(2-hydroxypropan-2-yl)isoxazol-5-yl)-1-((1,4,5,7-tetrahydropyrano[3,4-c]pyrazol-3-yl)methyl)urea] | > 100000 | 84.1 | > 1100 |
| COc1ncc(N(Cc2cc(C(F)(F)F)[nH]n2)C(=O)Nc2cc(Cl)c(F)cn2)cn1 [Example 89, 3-(4-chloro-5-fluoropyridin-2-yl)-1-(2-methoxypyrimidin-5-yl)-1-((5-(trifluoromethyl)-1H-pyrazol-3-yl)methyl)urea] | > 100000 | 96 | 50 |
| COc1ncc(N(Cc2n[nH]c(C(F)F)c2C(C)(C)O)C(=O)Nc2ccc(F)c(C(F)F)c2)cn1 [Example 198, 1-((5-(difluoromethyl)-4-(2-hydroxypropan-2-yl)-1H-pyrazol-3-yl)methyl)-3-(3-(difluoromethyl)-4-fluorophenyl)-1-(2-methoxypyrimidin-5-yl)urea] | > 100000 | 102 | > 1100 |
| COc1ncc(N(Cc2cc(C(F)(F)F)[nH]n2)C(=O)Nc2cnc(F)nc2)cn1 [Example 186, 3-(2-fluoropyrimidin-5-yl)-1-(2-methoxypyrimidin-5-yl)-1-((5-(trifluoromethyl)-1H-pyrazol-3-yl)methyl)urea] | > 100000 | 86.4 | > 1100 |
| COc1ncc(N(Cc2cc(C(F)(F)F)[nH]n2)C(=O)Nc2cc(F)c(F)cn2)cn1 [Example 172, 3-(4,5-difluoropyridin-2-yl)-1-(2-methoxypyrimidin-5-yl)-1-((5-(trifluoromethyl)-1H-pyrazol-3-yl)methyl)urea] | > 100000 | – | 240 |
| COc1ncc(N(Cc2cc(C(F)F)[nH]n2)C(=O)Nc2ccc(F)c(C(F)F)n2)cn1 [Example 196, 1-((5-(difluoromethyl)-1H-pyrazol-3-yl)methyl)-3-(6-(difluoromethyl)-5-fluoropyridin-2-yl)-1-(2-methoxypyrimidin-5-yl)urea] | 76400 | 29.2 | 160 |
